Measured values from publication PMC11443511, “Discovery of anti-infective compounds against Mycobacterium marinum after biotransformation of simple natural stilbenes by a fungal secretome” (Frontiers in Microbiology, 2024).
“Also recorded” adds a separate entry of the source. Like-named read-outs stand apart in the source and are kept apart here.

What was measured:
[1] = tested on: Mycobacterium marinum (Mm) in infection of Dictyostelium discoideum (Mm-inf); experiment: Anti-infective assay, growth of Mm during infection of Dd (Mm-inf, luminescence); type: cell-based; details: for IC50: 72 h; for activity at 20 µM: vehicle = 1, baseline = 0, hit cut-off <0.5; for pro-infective effect on Mm-inf (in words): between 0.4 and 3.3 μM
[2] = tested on: Mycobacterium marinum in broth (Mm-broth); experiment: Antibacterial assay, growth of Mm in broth (Mm-broth, luminescence); type: cell-based; details: for IC50 / MIC: Mycobacterium marinum; for IC50: read-out: IC50 Mm-broth; for activity on Mm-broth (in words): at respective maximal tested concentration; for activity on Mm in broth (in words): screen at 20 μM or dose-response curve; for normalized residual growth of Mm-broth: 20 μM, vehicle = 1, baseline = 0
[3] = tested on: Dictyostelium discoideum (Dd-inf); experiment: microbe, parasite or virus in culture; type: cell-based; details: for normalized residual growth of Dd-inf: 20 μM, vehicle = 1, baseline = 0; for IC50: Dictyostelium discoideum, 72 h, read-out: IC50 Dd-inf (Dd growth)
Mm [4] = experiment: Checkerboard assay for synergy with antibiotics
Source text: We tested this compound for synergy with rifampicin and isoniazid in a checkerboard assay and additionally tested for synergy between rifampicin and isoniazid.

intracellular Mm = experiment: Anti-infective assay with high-content microscopy, area of intracellular Mm; details: 20, 10, 2.5 μM, up to 48 h
Procedure: (§1) To monitor both the host and pathogen during the course of infection in a quantitative manner, Dd Ax2(ka) cells expressing mCherry knocked-in at the act5 locus ([Paschke et al., 2019]) were infected as described above with Mm WT stably expressing GFP (Msp:12-GFP). As described above, the day before the experiment, 10^7 amoebae were plated in a 10 cm Petri dish. On the day of the experiment, infection was performed, as described above, in HL5-C at MOI 25 by spinoculation. This was followed by eight washes in HL5-C to clear a maximum of non-internalized bacteria. The infected amoebae were detached mechanically and resuspended in HL5-C with 0.75 U/mL penicillin and 0.75 μg/mL of streptomycin (Gibco). Compounds were diluted in HL5-C to a 10x stock of the final assay concentration and pre-plated in 20 μL into the respective wells of a 96-well μ-plate (iBIDI 96-well μ-plate, 89,626). Subsequently, 7,500 cells per well were added in a volume of 180 μL. Every condition has been plated in at least three technical replicates and at least three biological replicates. The 96-well plate was sealed with a gas permeable seal (4titude, 4ti-0516/96) and centrifuged briefly.
(§2) Microscopy images were acquired at 25°C with a 40X plan Apo objective at selected time points over 48 h on the ImageXpress Micro C® automated microscope (Molecular Devices) in wide field mode. Focus was obtained automatically by autofocusing on the well bottom and plate bottom, at every well and every time point. In a grid of 4 × 5, 20 images per well, corresponding to a range of 500–6,000 cells, have been taken using the Texas-Red channel for Dd expressing mCherry and FITC channel for Mm expressing GFP in each experiment. Image analysis was performed using MetaXpress Custom Module editor software. Objects were effectively segmented by size and intensity. More precisely, amoebae were segmented using a “find blob module” using the Texas-Red channel. To segment the bacteria, the FITC image was first subjected to a light deconvolution with a top hat filter and then segmented using a “find blob module.” Intracellular bacteria and infected amoebae were determined by associating the mask of the amoebae and the bacteria. Several parameters such as intracellular and extracellular bacterial area sum, amoebae area sum, averaged and integrated fluorescence intensity and feature counts of bacteria and amoeba were extracted. The growth curves for the area sum of uninfected amoebae, infected amoebae and intracellular bacteria of independent biological replicates were averaged and plotted using GraphPad Prism (Version 8.0.1).
(§3) Both uninfected Dd and Dd infected with Mm were treated with 20, 10 or 2.5 μM of 17 or 19 and the infection was monitored by collecting microscopy images at five time points for up to 48 h.

Dd Ax2(ka) cells = experiment: Anti-infective assay with high-content microscopy, area of uninfected and infected Dd; details: 20, 10, 2.5 μM, up to 48 h
Procedure: as §1, §2, §3

Mm [5] = details: MIC90 from clinical isolates, cited from earlier work
[6] = read-out: IC50 Mm-inf, 72 h, AUC of luminescence normalized to vehicle, 4PL regression
[7] = at respective maximal tested concentration
[8] = 20 μM, read-out: normalized residual growth of Mm-inf
[9] = AUC of luminescence normalized to vehicle, 4PL regression, read-out: IC50 Mm-inf
[10] = read-out: normalized residual growth of Mm-inf, 20 μM
[11] = converted from μM, read-out: MIC in infection
[12] = lowest concentration with normalized residual growth plus one SD ≤0, 72 h, read-out: MIC Mm-inf
[13] = 72 h, 7H9 broth, 32°C, read-out: MIC Mm-broth
[14] = ref Woods and Clinical and Laboratory Standards Institute, 2011

Compound: COc1nc2ccc(Br)cc2cc1[C@@H](c1ccccc1)[C@@](O)(CCN(C)C)c1cccc2ccccc12 [bedaquiline]
- IC50 [1, 6]: 4 µM
- activity on Mm-inf (in words) [1, 7]: sterilizing activity
- IC50 ([2]; 72 h): 1600 nM
- MIC ([2]; 72 h, read-out: MIC Mm-broth): 3.3 µM
- activity on Mm-broth (in words) [2]: sterilizing activity

Compound: Oc1ccc(/C=C/c2cc(O)cc(O)c2)cc1 [compound 1, resveratrol]
- activity on Mm-inf (in words) ([1]; dose-response curve): lack of activity

Compound: COc1cc(/C=C/c2ccc(O)cc2)cc(OC)c1 [compound 2, pterostilbene]
- activity at 20 µM [1, 8]: 28%
- IC50 [1, 9]: 19.8 µM
- activity on Mm-inf (in words) ([1]; dose-response curve): validated anti-infectives without antibiotic properties
- normalized residual growth of Dd-inf [3]: –0.16
- IC50 ([3]; dose-response curve): 11.1 µM
- activity on Mm in broth (in words) [2]: inactive on Mm in broth

Compound: COc1cc(O)cc(/C=C/c2ccc(O)cc2)c1 [compound 3, pinostilbene]
- activity on Mm-inf (in words) ([1]; dose-response curve): active on Mm-inf, at high concentrations (>20 μM)

Compound: COc1cc(/C=C/c2cc(O)cc(O)c2)ccc1O [compound 4, isorhapontigenin]
- activity on Mm-inf (in words) ([1]; dose-response curve): lack of activity

Compound: Oc1ccc(C2Oc3ccc(C=Cc4cc(O)cc(O)c4)cc3C2c2cc(O)cc(O)c2)cc1 (stereo not drawn) [compound 11, trans-δ-viniferin]
- activity at 20 µM [1, 8]: 110%
- normalized residual growth of Mm-broth [2]: 1

Compound: COc1cc(OC)cc(C2c3cc(C=Cc4cc(O)cc(O)c4)ccc3OC2c2ccc(O)cc2)c1 (stereo not shown) [compound 17]
- IC50 [1, 9]: 18.1 µM
- activity on Mm-inf (in words) ([1]; at 20 μM): passed again the 0.5 cut-off
- activity on Mm-inf (in words) ([1]; dose-response curve): dose-dependent activity; also recorded: validated anti-infectives without antibiotic properties
- IC50 ([1]; read-out: IC50 Mm-inf, AUC of luminescence normalized to vehicle, 4PL regression): 18.9 µM
- activity at 20 µM [1, 10]: 34%
- normalized residual growth of Dd-inf [3]: 0.91
- activity on Mm in broth (in words) [2]: no activity on Mm in broth; also recorded: without antibiotic activity; also recorded: did not show any growth inhibition
- synergy with rifampicin and isoniazid (in words) (Mm [4]): did not find striking synergy
- growth of intracellular Mm (segmented area, in words) (intracellular Mm): this effect was weaker
- growth of infected Dd (segmented area, in words) (Dd Ax2(ka) cells): this effect was weaker

Compound: COc1cc(C=Cc2ccc3c(c2)C(c2cc(O)cc(O)c2)C(c2ccc(O)cc2)O3)cc(OC)c1 (stereo not shown) [compound 19]
- IC50 [1, 9]: 9 µM
- activity on Mm-inf (in words) ([1]; at 20 μM): passed again the 0.5 cut-off
- activity on Mm-inf (in words) ([1]; dose-response curve): dose-dependent activity; also recorded: validated anti-infectives without antibiotic properties
- activity at 20 µM [1, 10]: -32%
- normalized residual growth of Dd-inf [3]: –0.22
- IC50 ([3]; dose-response curve): 12.1 µM
- lowest measured value of Dd-inf (normalized residual growth) ([3]; dose-response curve): −0.40
- activity on Mm in broth (in words) [2]: no activity on Mm in broth; also recorded: without antibiotic activity; also recorded: did not show any growth inhibition
- growth of intracellular Mm (segmented area, in words) (intracellular Mm): almost completely inhibited
- growth of infected Dd (segmented area, in words) (Dd Ax2(ka) cells): almost completely inhibited
- growth of uninfected Dd (segmented area, in words) (Dd Ax2(ka) cells): significantly reduced

Compound: COc1cc(C=Cc2ccc3c(c2)C(c2cc(OC)cc(OC)c2)C(c2ccc(O)cc2)O3)cc(OC)c1 (stereo not shown) [compound 21]
- activity at 20 µM [1, 8]: 140%
- normalized residual growth of Mm-broth [2]: 1

Compound: Oc1ccc([C@H]2Oc3ccc(/C=C\c4cc(O)cc(O)c4)cc3[C@@H]2c2cc(O)cc(O)c2)cc1 [compound 55]
- activity on Mm-inf (in words) ([1]; at 20 μM): inactive

Compound: COc1cc(OC)cc([C@H]2c3cc(/C=C\c4cc(O)cc(O)c4)ccc3O[C@@H]2c2ccc(O)cc2)c1 [compound 56]
- IC50 [1, 6]: 19.7 µM

Compound: COc1cc(/C=C\c2ccc3c(c2)[C@H](c2cc(O)cc(O)c2)[C@@H](c2ccc(O)cc2)O3)cc(OC)c1 [compound 57]
- IC50 [1, 6]: 9.8 µM

Compound: COc1cc(/C=C\c2ccc3c(c2)[C@H](c2cc(OC)cc(OC)c2)[C@@H](c2ccc(O)cc2)O3)cc(OC)c1 [compound 58]
- activity on Mm-inf (in words) ([1]; at 20 μM): inactive

Compound: COc1ccc([C@H]2Oc3ccc(/C=C/c4cc(O)cc(O)c4)cc3[C@@H]2c2cc(O)cc(OC)c2)cc1 [compound 62]
- IC50 [1, 9]: 13.4 µM
- lowest measured value of Dd-inf (normalized residual growth) ([3]; dose-response curve): 0.42

Compound: COc1ccc([C@H]2Oc3ccc(/C=C/c4cc(O)cc(OC)c4)cc3[C@@H]2c2cc(O)cc(O)c2)cc1 [compound 63]
- IC50 [1, 9]: 8.6 µM
- lowest measured value of Dd-inf (normalized residual growth) ([3]; dose-response curve): 0.8
- growth of intracellular Mm (segmented area, in words) (intracellular Mm): infection was well controlled
- growth of uninfected Dd (segmented area, in words) (Dd Ax2(ka) cells): only a slight growth inhibition at 20 μM

Compound: COc1cc(O)cc(/C=C/c2ccc3c(c2)[C@H](c2cc(O)cc(OC)c2)[C@@H](c2ccc(O)cc2)O3)c1 [compound 64]
- IC50 [1, 9]: 8 µM
- lowest measured value of Dd-inf (normalized residual growth) ([3]; dose-response curve): 0.62
- growth of intracellular Mm (segmented area, in words) (intracellular Mm): infection was well controlled
- growth of uninfected Dd (segmented area, in words) (Dd Ax2(ka) cells): only a slight growth inhibition at 20 μM

Compound: COc1cc([C@H]2Oc3c(OC)cc(/C=C/c4cc(O)cc(O)c4)cc3[C@@H]2c2cc(O)cc(O)c2)ccc1O [compound 65]
- activity on Mm-inf (in words) ([1]; at 20 μM): pro-infective activity

Compound: Oc1ccc(-c2oc3ccc(/C=C/c4cc(O)cc(O)c4)cc3c2-c2cc(O)cc(O)c2)cc1 [compound 66]
- IC50 [1, 6]: 29.7 µM
- activity at 20 µM [1, 10]: 55%
- IC50 [3]: 26.2 µM

Compound: COc1cc(OC)cc(-c2c(-c3ccc(O)cc3)oc3ccc(/C=C/c4cc(O)cc(O)c4)cc23)c1 [compound 67]
- IC50 [1, 6]: 19.6 µM

Compound: COc1cc(/C=C/c2ccc3oc(-c4ccc(O)cc4)c(-c4cc(O)cc(O)c4)c3c2)cc(OC)c1 [compound 68]
- IC50 [1, 6]: 20.1 µM

Compound: COc1cc(/C=C/c2ccc3oc(-c4ccc(O)cc4)c(-c4cc(OC)cc(OC)c4)c3c2)cc(OC)c1 [compound 69]
- activity on Mm-inf (in words) ([1]; dose-response curve): remained inactive

Compound: CC[C@@H](CO)NCCN[C@@H](CC)CO [ethambutol, reference compound]
- IC50 [1, 6]: 7 µM
- activity on Mm-inf (in words) [1, 7]: sterilizing activity
- MIC [1, 11]: 6.1 µg/mL
- MIC [1, 12]: 30 µM
- IC50 ([2]; 72 h): 1000 nM
- MIC [2, 13]: 3.3 µM
- activity on Mm-broth (in words) [2]: sterilizing activity
- breakpoint of antibacterial susceptibility for Mm (Mm [5]; [14]): 4 µg/mL

Compound: CCc1cc(C(N)=S)ccn1 [ethionamide]
- IC50 [1, 6]: 4 µM
- activity on Mm-inf (in words) [1, 7]: sterilizing activity
- IC50 ([2]; 72 h): 800 nM
- MIC ([2]; 72 h, read-out: MIC Mm-broth): 3.3 µM
- activity on Mm-broth (in words) [2]: sterilizing activity
- breakpoint of antibacterial susceptibility for Mm (Mm [5]; ref Lorian, 2005): 5 µg/mL

Compound: NNC(=O)c1ccncc1 [isoniazid, reference compound]
- IC50 [1, 6]: 11 µM
- activity on Mm-inf (in words) [1, 7]: sterilizing activity
- pro-infective effect on Mm-inf (in words) [1]: slight pro-infective effect
- MIC [1, 11]: 4.1 µg/mL
- MIC [1, 12]: 30 µM
- IC50 ([2]; 72 h): 10000 nM
- MIC [2, 13]: 30 µM
- MIC ([2]; converted from μM, read-out: MIC in broth): 4.1 µg/mL
- activity on Mm-broth (in words) [2]: sterilizing activity

Compound: NC(=O)c1cnccn1 [pyrazinamide, reference compound]
- pro-infective effect on Mm-inf (in words) [1]: slight pro-infective effect
- activity on Mm-inf (in words) ([1]; dose-response curve): lack of activity; also recorded: no activity against Mm
- activity on Mm in broth (in words) [2]: no activity against Mm

Compound: CO[C@H]1/C=C/O[C@@]2(C)Oc3c(C)c(O)c4c(c3C2=O)C2=NC3(CCN(CC(C)C)CC3)NC2=C(NC(=O)/C(C)=C\C=C\[C@H](C)[C@H](O)[C@@H](C)[C@@H](O)[C@@H](C)[C@H](OC(C)=O)[C@@H]1C)C4=O [rifabutin]
- IC50 [1, 6]: 0.2 µM
- activity on Mm-inf (in words) [1, 7]: sterilizing activity
- activity on Dd growth, Dd-inf (in words) ([3]; dose-response curve): affected amoebae growth slightly at the highest tested concentrations
- IC50 ([2]; 72 h): 30 nM
- MIC ([2]; 72 h, read-out: MIC Mm-broth): 0.01 µM
- activity on Mm-broth (in words) [2]: sterilizing activity
- breakpoint of antibacterial susceptibility for Mm (Mm [5]; [14]): 2 µg/mL

Compound: CO[C@H]1/C=C/O[C@@]2(C)Oc3c(C)c(O)c4c(O)c(c(/C=N/N5CCN(C)CC5)c(O)c4c3C2=O)NC(=O)/C(C)=C\C=C\[C@H](C)[C@H](O)[C@@H](C)[C@@H](O)[C@@H](C)[C@H](OC(C)=O)[C@@H]1C [rifampicin, reference compound]
- IC50 [1, 6]: 5 µM
- activity on Mm-inf (in words) [1, 7]: sterilizing activity
- MIC [1, 12]: 10 µM
- activity on Dd growth, Dd-inf (in words) ([3]; dose-response curve): affected amoebae growth slightly at the highest tested concentrations
- IC50 ([2]; 72 h): 100 nM
- MIC [2, 13]: 1.1 µM
- activity on Mm-broth (in words) [2]: sterilizing activity
